{
  "source": "patent US9763439B2",
  "about": "“Method of packaging food” (Universidad de Santiago de Chile, priority 2013, dated 2017)",
  "origin": "cited, not measured here",
  "conditions": "thermoforming process (±140° C.) does not affect its stability",
  "data": [
    {"smiles": "C/C=C/C=C/C(=O)[O-].[K+]", "note": "[potassium sorbate]", "values": [
      {"measurement": "temperature withstood", "result": "up to 270 °C"}
    ]}
  ]
}
